Measurements from patent US20220088024A1, “METHODS FOR TREATING CANCER USING TOZADENANT” (Biotie Therapies, Inc., priority 2018, published 2022).
Values joined by “and” are separate entries in the source; they are usually repeats but may differ in a detail not shown here. Equal values may be shown once.

How the values were obtained:
[1] = tested on: AT-3ova CD73+ tumour (mouse breast carcinoma cell line AT-3); test: Example 2: anti-tumor responses of SYN-115 in the AT-3ova CD73+ tumour cell mouse model (tumor area); assay type: in vivo, C57/BL6 mice
Procedure: The C57BL/6 mouse breast carcinoma cell line AT-3 was obtained from Dr. Trina Stewart (Griffith University, Nathan, QLD, Australia. Tumor cell lines were transduced to express chicken ovalbumin peptide and CD73 as previously described (1, 2, 3). Tumor cells are periodically verified to be Mycoplasma negative by the Victorian Infectious Diseases References Lab (Melbourne, VIC, Australia) by PCR analysis. Tumor cells were grown in DMEM supplemented with 10% FCS, GlutaMAX, and penicillin/streptomycin. 5×10^5 cells were resuspended in PBS and injected s.c. into C57/BL6 mice in a 100 μL volume. At day 14 tumors were measured and mice were randomized into distinct treatment groups to ensure that each group had tumors of similar size at the onset of treatment. Mice were treated i.p. at days 14, 18, 22, and 26 with either isotype control (2A3; 200 μg/mouse) or anti-PD-1 mAb (RMP1-14, 200 μg/mouse) and where indicated, SYN-115 (Batch 71236AA002) at the indicated dose or vehicle control once-daily via oral gavage on days 14 to 29. To calculate a dose of SYN-115 mouse weight was estimated to be 20 g per mouse. Therefore, 100 mg/kg=2 mg per mouse in 200 μL, which is equivalent to 10 mg/ml. To make up 40 mL, 400 milligrams of SYN-115 was weighed and added into a Falcon tube, then 1 mL of Tween 80 was added and mixed into a paste and then 39 mL of 1% Methyl Cellulose was added. The solution was vortexed and then left on rotating mixer for at least 2 hours and maintained at 4° C. Tumor measurements were taken 2-3 times per week. Tumor sizes were determined by width * length and mice were culled when tumors reached the ethical limit of 150 mm^2.

[2] = tested on: B16F10 CD73 melanoma metastases; test: Example 9: number of lung tumor metastases in the B16F10 CD73 tumor mouse model; assay type: in vivo, C57/BL6 mice (A2A-/- or Wild-Type)
Procedure: The C57/BL6 mouse melanoma cell line B16F10 CD73 was cultured in DMEM supplemented with 10% FCS, GlutaMAX, and penicillin/streptomycin. Tumor cells are periodically verified to be Mycoplasma negative by the Victorian Infectious Diseases References
Lab (Melbourne, VIC, Australia) by PCR analysis. 2×10^5 cells were resuspended in PBS and injected i.v. into C57/BL6 mice (A2A^−/− or Wild-Type) in a 200 μL volume. At day 14 lungs were excised and the number of metastases counted under the dissecting microscope. Mice were dosed with either SYN-115 (Batch 71236AA002) at 100 mg/kg or vehicle control once-daily via oral gavage on days 0 to 13. To calculate a dose of SYN-115 mouse weight was estimated to be 20 g per mouse. Therefore, 100 mg/kg=2 mg per mouse in 200 μL, which is equivalent to 10 mg/ml. To make up 40 mL, 400 milligrams of SYN-115 was weighed and added into a Falcon tube, then 1 mL of Tween 80 was added and mixed into a paste and then 39 mL of 1% Methyl Cellulose was added. The solution was vortexed and then left on a rotating mixer for at least 2 hours and maintained at 4° C.

COc1ccc(N2CCOCC2)c2sc(NC(=O)N3CCC(C)(O)CC3)nc12 [SYN-115, 4-hydroxy-4-methyl-piperidine-1-carboxylic acid (4-methoxy-7-morpholin-4-yl-benzothiazol-2-yl)-amide]
Tumor size (width * length) ([1]; 2A3 (200 μg/Mouse)+SYN-115 (100 mg/kg), Day 39): 123.2 mm^2 and 91.35 mm^2 and 103.88 mm^2
Tumor size (width * length) ([1]; 2A3 (200 μg/Mouse)+SYN-115 (100 mg/kg), Day 45): 143 mm^2
Tumor size (width * length) ([1]; Anti-PD-1 (200 ug)+SYN-115 (10 mg/kg), Day 50): 48.38 mm^2 and 66.22 mm^2
Tumor size (width * length) ([1]; Anti-PD-1 (200 ug)+SYN-115 (10 mg/kg), Day 53): 53.6 mm^2 and 83.72 mm^2
Tumor size (width * length) ([1]; Anti-PD-1 (200 ug)+SYN-115 (10 mg/kg), Day 57): 63.19 mm^2 and 81.6 mm^2
Tumor size (width * length) ([1]; Anti-PD-1 (200 ug)+SYN-115 (10 mg/kg), Day 60): 72.72 mm^2 and 80.04 mm^2
Tumor size (width * length) ([1]; Anti-PD-1 (200 ug)+SYN-115 (10 mg/kg), Day 64): 91.64 mm^2 and 104.86 mm^2
Tumor size (width * length) ([1]; Anti-PD-1 (200 ug)+SYN-115 (10 mg/kg), Day 68): 121.26 mm^2
Tumor size (width * length) ([1]; Anti-PD-1 (200 ug)+SYN-115 (30 mg/kg), Day 57): 75.24 mm^2 and 44.22 mm^2
Tumor size (width * length) ([1]; Anti-PD-1 (200 ug)+SYN-115 (30 mg/kg), Day 60): 89.25 mm^2 and 48.28 mm^2
Tumor size (width * length) ([1]; Anti-PD-1 (200 ug)+SYN-115 (30 mg/kg), Day 64): 107.1 mm^2 and 69.52 mm^2
Tumor size (width * length) ([1]; Anti-PD-1 (200 ug)+SYN-115 (30 mg/kg), Day 68): 92.22 mm^2
Tumor size (width * length) ([1]; Anti-PD-1 (200 ug)+SYN-115 (100 mg/kg), Day 45): 101 mm^2 and 129.71 mm^2 and 75.84 mm^2
Tumor size (width * length) ([1]; Anti-PD-1 (200 ug)+SYN-115 (100 mg/kg), Day 50): 136.4 mm^2
Number of Tumor Metastases (lung), individual mice ([2]; 100 mg/kg once-daily oral gavage days 0 to 13, counted day 14, Batch 71236AA002): 53 and 108 and 107 and 61 and 72 and 64 and 40 and 24 and 56 and 82
Efficacy on tumor metastases ([2]; SYN-115 100 mg/kg once-daily oral, days 0 to 13): No efficacy
